Reference: patent US20250035641A1, “COMPOSITIONS AND METHODS RELATED TO PROTEIN LABELING” (The Chinese University of Hong Kong, priority 2023, published 2025)

Experiments:
FKBP12^F36V = FKBP12^F36V (Homo sapiens, UniProt P62942, F37V); details: cited from earlier work
HTN-CK2α [1] = molecular target: T1, HTN-CK2α (Homo sapiens, UniProt P68400); assay: Immunoblot of HTN-CK2α O-GlcNAcylation in HEK293T cells co-expressing fOGT; assay type: cell-based; details: co-treated with OGTAC-1
Description: Ck2α is a well-studied OGT substrate.^17,25 Its Ser347 is conservatively O-GlcNAcylated and this modification was reported to affect its kinase activity.^16,17 We first co-expressed HTN-Ck2α and fOGT in HEK293T cells at different ratio and found the basal O-GlcNAcylation level of HTN-Ck2α was higher than what we detected in the case of HTN-BRD4. Therefore, a lower ratio of fOGT expression (1:100) was selected for the assessment of OGTAC potency (FIG. 9). […] The induction of specific O-GlcNAcylation on HTN-Ck2α was further confirmed by mass-shift assay. […] To validate the direct binding to both fOGT and HTN-Ck2α is critical, we exploited AP 1867 and rhodamine ligand, which bind to fOGT and HTN-Ck2α respectively, to co-treat with OGTAC-1.
During immunoblotting study, we noticed that even for whole cell lysate (WCL), RL2 antibody band (green) and HTN-CK2α protein band (red) are perfectly overlapped and clearly distinguishable from other bands on blot (FIG. 6B). We assessed the OGTAC treatment effects by quantifying the RL2 signal that is overlapping with HTN-Ck2α in WCL, and found they are corresponding with the results achieved by IP-WB method (FIG. 6C). Therefore, we quantify the intensity of RL2 band that overlapping with HTN-CK2α level instead of IP CK2α in later study.
For each IP reaction, 2.2×10^6 HEK293T cells were seed in 10 cm dish. After cells attached, transfection reagents and plasmids were prepared and added in DMEM. After 24 h transfection, media were replaced by fresh warm complete media with DMSO or probes. For washout study, after 4 h treatment, media with DMSO or OGTAC-4 (500 nM) were replaced by fresh media with DMSO or AP1867 (50 μM) for further incubation. After certain time of OGTACs treatment, cells were collected by cold PBS and lysed by 200 μL complete IP lysis buffer. The lysate was incubated on ice for 20 min, spun down at 14,000 RPM at 4° C. for 15 mins, and the supernatant were collected for bicinchoninic acid (BCA) assay and normalized to a final 2 mg/mL. For input, 20 μL of diluted sample was reacted with equal volume of 10 μM TMR ligand in IP lysis buffer and rotate gently at RT for 15 mins. The remaining samples were subjected to protein A/G magnetic beads (MedChemExpress, HY-K0202), which pre-binding with protein target protein antibody. For samples for LC-MS/MS or HTN-BRD4 mutant constructs. Halo-Trap Magnetic Agarose (Proteintech, otma) was used to incubate with protein lysates. After gentle rotation at 4° C. for at least 16 h, the beads were washed with IP lysis buffer and boiled in 40 μL 2×SDS-loading buffer (Biorad #1610747) for 5 mins to elute proteins from beads. Eluted samples were directly subjected into WB analysis. To get stronger signal of RL2, we used anti-mouse-HRP (Cell signaling, #7076) as secondary antibody for RL2 and anti-rabbit-DyLight 488 (Invitrogen, #35552) as secondary antibody for total target proteins.
In general, cells (from 12 well plate) were lysed by 80 μl RIPA lysis buffer (Thermo Scientic 89901) supplemented with 20 μM OGA inhibitor (Thaimet G, Bidepharm BD571819) and 100X protease inhibitor (MedChemExpress, HY-K0010), incubated on ice for 20 min, spun down at 14,000 RPM at 4° C. for 15 mins, and the supernatant were collected for bicinchoninic acid (BCA) assay and normalizedeto a final 2 mg/mL concentration. About 30 μg of protein samples were loaded for sodium dodecyl sulfatepolyacrylamide gel electrophoresis (SDS-PADE) and blotted with indicated antibodies.
Target sequence in this assay (P68400 with tags, fused parts or gaps): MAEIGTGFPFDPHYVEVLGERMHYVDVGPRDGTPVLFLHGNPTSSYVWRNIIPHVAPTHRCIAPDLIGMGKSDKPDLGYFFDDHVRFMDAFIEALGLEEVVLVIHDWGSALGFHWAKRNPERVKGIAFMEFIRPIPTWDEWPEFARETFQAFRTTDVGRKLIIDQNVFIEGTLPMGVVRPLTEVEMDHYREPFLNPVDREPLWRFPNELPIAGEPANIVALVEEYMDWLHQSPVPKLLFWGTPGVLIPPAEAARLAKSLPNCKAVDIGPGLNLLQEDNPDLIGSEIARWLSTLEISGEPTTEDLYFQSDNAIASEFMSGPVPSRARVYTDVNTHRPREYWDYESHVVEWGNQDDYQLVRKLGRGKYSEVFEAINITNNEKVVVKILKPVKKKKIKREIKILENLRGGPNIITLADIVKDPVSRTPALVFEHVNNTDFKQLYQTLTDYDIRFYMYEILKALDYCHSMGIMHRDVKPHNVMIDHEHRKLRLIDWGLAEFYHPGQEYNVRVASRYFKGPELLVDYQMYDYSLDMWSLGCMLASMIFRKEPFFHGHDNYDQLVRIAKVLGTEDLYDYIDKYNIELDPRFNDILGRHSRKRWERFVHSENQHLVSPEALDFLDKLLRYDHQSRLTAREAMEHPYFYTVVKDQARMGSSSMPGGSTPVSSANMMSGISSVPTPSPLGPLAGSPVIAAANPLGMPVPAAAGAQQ
Target sequence in this assay (P62942+O15294 fused P62942:F37V partner): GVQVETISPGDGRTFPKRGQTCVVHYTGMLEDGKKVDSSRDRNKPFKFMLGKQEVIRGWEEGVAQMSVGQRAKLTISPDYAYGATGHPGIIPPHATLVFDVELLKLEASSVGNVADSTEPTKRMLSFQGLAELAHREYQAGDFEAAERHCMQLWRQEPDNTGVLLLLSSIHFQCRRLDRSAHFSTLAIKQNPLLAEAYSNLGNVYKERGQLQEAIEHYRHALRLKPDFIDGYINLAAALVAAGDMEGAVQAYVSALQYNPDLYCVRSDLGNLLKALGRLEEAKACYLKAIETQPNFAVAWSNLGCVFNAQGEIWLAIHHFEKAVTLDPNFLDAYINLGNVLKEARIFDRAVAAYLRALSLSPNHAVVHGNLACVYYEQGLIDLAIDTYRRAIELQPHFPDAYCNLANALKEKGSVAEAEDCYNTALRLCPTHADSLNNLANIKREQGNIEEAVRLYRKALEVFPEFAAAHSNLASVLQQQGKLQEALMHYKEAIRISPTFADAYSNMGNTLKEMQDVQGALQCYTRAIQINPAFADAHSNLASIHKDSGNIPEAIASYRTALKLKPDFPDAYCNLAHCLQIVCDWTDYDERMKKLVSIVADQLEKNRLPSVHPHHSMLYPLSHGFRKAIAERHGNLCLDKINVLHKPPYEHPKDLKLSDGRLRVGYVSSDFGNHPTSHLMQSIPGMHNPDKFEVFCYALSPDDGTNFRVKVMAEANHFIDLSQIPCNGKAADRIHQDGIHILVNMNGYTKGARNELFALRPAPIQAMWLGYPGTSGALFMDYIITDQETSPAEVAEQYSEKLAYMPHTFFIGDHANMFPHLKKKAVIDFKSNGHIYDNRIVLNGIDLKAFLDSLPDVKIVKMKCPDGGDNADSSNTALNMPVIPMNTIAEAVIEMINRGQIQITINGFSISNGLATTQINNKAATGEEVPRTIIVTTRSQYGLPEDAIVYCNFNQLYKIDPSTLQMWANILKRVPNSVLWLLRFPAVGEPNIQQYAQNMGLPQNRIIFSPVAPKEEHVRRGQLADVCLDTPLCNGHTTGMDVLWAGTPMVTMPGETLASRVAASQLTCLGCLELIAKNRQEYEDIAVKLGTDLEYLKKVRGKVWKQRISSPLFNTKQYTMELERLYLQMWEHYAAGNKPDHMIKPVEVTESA

HTN-BRD4 and 0tfOGT = molecular target: T2, HTN-BRD4 and 0tfOGT (Homo sapiens, UniProt O60885+P62942, F37V); assay: Washout / reversibility study, HTN-BRD4:0tfOGT; assay type: cell-based; details: AP1867 50 μM after OGTAC-4 500 nM 4 h
T2 construct: HaloTag fragment; 0TPR(463-1046)-; expressed in transfected cells; host or cells: HEK293T
T2 sequence (P62942 whole entry F37V, stated change not applied, other chains not shown, the tested form may be a part): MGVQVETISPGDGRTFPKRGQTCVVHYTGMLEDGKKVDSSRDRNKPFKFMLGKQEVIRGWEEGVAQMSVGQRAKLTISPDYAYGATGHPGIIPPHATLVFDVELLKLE
Protocol: FIGS. 7A-7E: Specificity and reversibility of OGTAC strategy. […] (B), Constructs of fOGT with 13.5 (rounded to 13) TPR and 0TPR-fOGT (0tfOGT). (C). […] (D), Dose-dependent O-GlcNAcylation profile of HTN-BRD4 by OGTAC-4 treatment. HEK293T cells expressing HTN-BRD4:0tfOGT=1:0.05 were treated with an increasing concentration of OGTAC-4 for 4 h. Then, the O-GlcNAcylation level of HTN-BRD4 was assessed by immunoblot after IP using BRD4 antibody. All quantifications are shown as mean±s.e.m. of n=3 biologically independent experiments. (E), Reversible effect of OGTAC-4 on HTN-BRD4 can be achieved by addition of AP1867. HEK293T cells expressing HTN-BRD4:0tfOGT=1:0.05 were pretreated with OGTAC-4 (500 nM) or DMSO for 4 h, and culturing media were replaced by fresh media with DMSO or AP1867 (50 μM) for the indicated time. The quantifications in right panel were conducted by the normalizing the fold-change (OGTAC-4/DMSO) for each post-washout time point to the value of 4 h pre-treatment. All quantifications are shown as mean±s.e.m. of 3 independent biological repeats. Statistical significance was calculated with ordinary one-way ANOVA comparing samples with different transfection conditions or OGTAC-treatment. ns, p≥0.05; *p<0.05; **p<0.01; ***p<0.001; ****p<0.0001.
To assess the potential application of our OGTAC strategy in downstream biological studies, we investigated the reversibility of OGTACs. […] Additionally. the O-GlcNAc level of BRD4 returned to baseline after 6 hours of AP1867 treatment, confirming the reversibility of the induction effect (FIG. 7E).
For each IP reaction, 2.2×10^6 HEK293T cells were seed in 10 cm dish. After cells attached, transfection reagents and plasmids were prepared and added in DMEM. After 24 h transfection, media were replaced by fresh warm complete media with DMSO or probes. For washout study, after 4 h treatment, media with DMSO or OGTAC-4 (500 nM) were replaced by fresh media with DMSO or AP1867 (50 μM) for further incubation. After certain time of OGTACs treatment, cells were collected by cold PBS and lysed by 200 μL complete IP lysis buffer. […]

HTN-CK2α [2] = molecular target: T1, HTN-CK2α; assay: O-GlcNAcylation of HTN-CK2α with 0tfOGT; assay type: cell-based; set-up: 0TPR(463-1046)-; expressed in transfected cells
Protocol: FIGS. 18A and 18B: Immunoblotting analysis of the global O-GlcNAcylation inducing effect of truncated OGTAC-4 and OGTAC-1 on HTN-BRD4 and HTN-CK2α respectively. (A), O-GlcNAcylation inducing effect of OGTAC-4 is dependent on the expression of 0tfOGT. […] The quantification was conducted by immunoblot signal of probe treatment/control as the mean±s.e.m. of n=2 biologically independent experiments. TR, transfection reagent.
Target sequence in this assay (P68400 with tags, fused parts or gaps): as the sequence (P68400 with tags, fused parts or gaps) above
Target sequence in this assay (P62942+O15294 fused P62942:F37V partner): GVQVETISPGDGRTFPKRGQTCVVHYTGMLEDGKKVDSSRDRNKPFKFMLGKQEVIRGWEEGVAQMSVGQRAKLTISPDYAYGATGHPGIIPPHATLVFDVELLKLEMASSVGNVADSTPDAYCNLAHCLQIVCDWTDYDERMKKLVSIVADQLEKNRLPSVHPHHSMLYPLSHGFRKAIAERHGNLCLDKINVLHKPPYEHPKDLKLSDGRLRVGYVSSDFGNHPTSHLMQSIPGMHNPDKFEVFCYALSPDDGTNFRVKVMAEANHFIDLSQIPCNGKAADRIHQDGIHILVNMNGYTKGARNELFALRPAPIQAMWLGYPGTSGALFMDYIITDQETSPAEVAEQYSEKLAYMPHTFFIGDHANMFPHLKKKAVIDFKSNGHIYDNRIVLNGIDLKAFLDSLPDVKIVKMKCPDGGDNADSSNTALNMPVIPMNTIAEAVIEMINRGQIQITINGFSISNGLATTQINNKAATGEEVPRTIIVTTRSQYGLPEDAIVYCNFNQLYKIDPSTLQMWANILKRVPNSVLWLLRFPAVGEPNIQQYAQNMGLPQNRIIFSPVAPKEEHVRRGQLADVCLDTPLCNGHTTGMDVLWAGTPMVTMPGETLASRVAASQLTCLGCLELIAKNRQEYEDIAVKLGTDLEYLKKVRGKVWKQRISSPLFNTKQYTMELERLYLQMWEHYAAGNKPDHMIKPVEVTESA

[3] = system: HTN-BRD4 covalently linked to OGTAC-1

Sequence of FKBP12^F36V (P62942 whole entry F37V): as the sequence (P62942 whole entry F37V, stated change not applied, other chains not shown, the tested form may be a part) above

CC[C@H](C(=O)N1CCCC[C@H]1C(=O)O[C@H](CCc1ccc(OC)c(OC)c1)c1cccc(OCC(=O)O)c1)c1cc(OC)c(OC)c(OC)c1 [AP1867, 2-[3-[(1R)-3-(3,4-dimethoxyphenyl)-1-[(2S)-1-[(2S)-2-(3,4,5-trimethoxyphenyl)butanoyl]piperidine-2-carbonyl]oxy-propyl]phenoxy]acetic acid]
Kd (FKBP12^F36V): 1.8 nM
effect of competitor co-treatment on OGTAC-1 induced HTN-CK2α O-GlcNAcylation (HTN-CK2α [1]): abolished the O-GlcNAcylation inducing effects
time for O-GlcNAc level of BRD4 to return to baseline (HTN-BRD4 and 0tfOGT): 6 h
time to marked decrease in ternary complex formation (HTN-BRD4 and 0tfOGT): ≤ 2 h

CCCCCCOCCOCCNC(=O)COc1cccc([C@@H](CCc2ccc(OC)c(OC)c2)OC(=O)[C@@H]2CCCCN2C(=O)[C@@H](CC)c2cc(OC)c(OC)c(OC)c2)c1 [OGTAC-1H, (R)-3-(3,4-dimethoxyphenyl)-1-(3-(2-((2-(2-(hexyloxy)ethoxy)ethyl)amino)-2-oxoethoxy)phenyl)propyl(S)-1-((S)-2-(3,4,5-trimethoxyphenyl)butanoyl)piperidine-2-carboxylate]
recruitment of 0tfOGT to HTN-CK2α (HTN-CK2α [2]): unable to recruit 0tfOGT to HTN-CK2α

CN(C)c1ccc2c(-c3cc(C(=O)NCCOCCOCCCCCCCl)ccc3C(=O)[O-])c3ccc(=[N+](C)C)cc-3oc2c1 [rhodamine ligand, 4-((2-(2-((6-chlorohexyl)oxy)ethoxy)ethyl)carbamoyl)-2-(6-(dimethylamino)-3-(dimethyliminio)-3H-xanthen-9-yl)benzoate, reference compound]
effect of competitor co-treatment on OGTAC-1 induced HTN-CK2α O-GlcNAcylation (HTN-CK2α [1]): abolished the O-GlcNAcylation inducing effects

FKBP12^F36V fused-OGT
RL2 signal of BRD4 (O-GlcNAcylation of HTN-BRD4, IP-immunoblot) after 2 h of OGTAC-1 640 nM [3]: 2.5-fold increase at 2 h
RL2 signal of BRD4 (O-GlcNAcylation of HTN-BRD4, IP-immunoblot) after 4 h of OGTAC-1 640 nM [3]: further escalated to around 2.8-fold at 4 h
